# Entries after “also recorded” stand apart in the source; their conditions may differ.
# Key:
# C. elegans = conditions: shown previously; cited from earlier work
# C. elegans males = test: Attraction assay (long-range, point source); assay type: in vivo; conditions: point source on 10 cm plate
# Protocol: 10 cm standard chemotaxis plates were prepared (Bargmann et al., Cell 74:515-27 (1993), which is hereby incorporated by reference in its entirety) and stored at 4° C. until the day before use. Standard 1 cm-diameter copper pipes were sectioned into 1 cm-tall segments to use for the holding chambers. The females/hermaphrodites were isolated overnight, washed 3 times in M9 buffer, and then allowed to wander on a plate pre-conditioned with 50 uL of 1000× streptomycin for 2 hours to kill any bacteria that might produce a false positive attractant. The nematodes were then washed 3 times, and the supernatant from the last wash was placed in a copper chamber, as the control, 1 cm from the border of the 10 cm plate. The nematodes were suspended in M9 within the copper chamber, 1 cm from the border opposite the control chamber. After 6 hours, they were subsequently removed and replaced with 3 μL of 1M sodium azide. 100 C. elegans adult males were isolated overnight, washed several times in ddH2O, and placed at the center of the agar plate. After several hours, males paralyzed within 2 cm of each region were scored. The Chemotaxis Index (Bargmann et al., Cell 74:515-27 (1993), which is hereby incorporated by reference in its entirety) was then used to score male chemotaxis to either point source.
# C. elegans dauer larvae = test: Dispersal assay, C. elegans dauer; assay type: in vivo; conditions: for dauer larvae that moved away from the release location, normalized to the percent of the positive control response: physiological concentration, with 0.25% E. coli (HB101), food only control approximately 35%; for substitution for ascr#2 in the C. elegans dispersal blend: in vivo
# Protocol: C. elegans dauer juveniles were washed with MILLI-Q water 3 times, placed into 6 cm petri dishes with a small amount of water, and rested overnight. Approximately 200-300 nematodes in 10 μl of water were placed on an agar plate, to which 2 μl of treatment was added. The liquid culture that produced 60% dauer animals was centrifuged, filtered with a 0.45 μm filter, and used as a positive control for dispersal. Thereafter, media were lyophilized and resuspended in MILLI-Q water 5 times. 2 μl to 10 μl of nematode suspension was used for the assay. As a negative control, 0.5% E. coli (HB101) was prepared in S-complete, lyophilized, and adjusted to the final volume of 0.25% E. coli in the assay.
# Nematodes were quantified using Image J software (Image Processing and Analysis in Java, National Institutes of Health). The number of nematodes visualized and counted using Image J is illustrated in FIG. 63B. Nematodes inside the circle were subtracted manually from the total number of worms counted because of the location of their placement. Each treatment was replicated 9-11 times. The graph was normalized to the positive control, the dauer conditioned medium.
# [1] = system: C. elegans hermaphrodites and males; conditions: from 1 μM concentration; previous study (Srinivasan 2008); cited from earlier work
# [2] = system: several of the tested nematode species; test: Retention assay, several nematode species; assay type: in vivo; conditions: 1 nM, 1 μM and 1 mM tested
# Protocol: OP50 E. coli was grown on a standard 5 cm agar plate (made with standard Nematode Growth Medium). The bacterial lawn was 16 mm in diameter and was grown overnight at 20° C. before being used in trials. Two 4 mm spots (0.6 μL) were placed on opposite sides of the bacterial lawn (using a transparent template to guide spot placement), and several minutes elapsed for the liquid to settle in before placing nematodes down on the assay. Recording began immediately upon worm placement. 0.6 μL of the control was placed on one side of the lawn, and 0.6 μL of the experimental cue was placed on the other side of the lawn, changing the location of the cue throughout trials between left/right and top/bottom to avoid bias.
# Nematodes were isolated by gender at the L4 stage the day before being used in trials as developed adults. Worms were evenly divided and placed at two points equidistant from the foci of the scoring region. Trials were recorded for 20 minutes, and frames were collected for analysis at 1 frame per second. Results were averaged from at least three different trials. For every nematode species in this study, a different total number of worms (using water in both scoring regions) was tested to determine the minimum number of worms necessary for consistent unbiased results over a 20 minute trial. The total number of worms used in the multiple species assays depended on that species' optimal parameters. 10 worms were used for P. redivivus males and females, 20 worms were used for C. elegans males and O. dolichuridae males, and 14 worms were used for S. glaseri males. The Automated Software was used to compare worm occupancy in each scoring region over time, and the Chemotaxis Index (Bargmann et al., Cell 74:515-27 (1993), which is hereby incorporated by reference in its entirety) was adapted to score preference or avoidance to each ascaroside.
# A video camera attached to the microscope produced a digital video stream, which was then analyzed. The ratio of the time the average worm spent in each region of interest was calculated for every trial. For ease of implementation, all worms in a single experiment were assumed to be roughly the same size. Thus worm pixels were counted instead of whole worms, allowing fractions of a worm in the region of interest to be taken into account. It also eliminated the need for a shape-based worm identification algorithm, and allowed each frame to be analyzed independently. A band-pass filter was applied to each frame to eliminate the effect of uneven lighting and also accentuate the worms against the background. The worm was then identified after thresholding the filtered image. Throughout each experiment, the locations and sizes of the regions of interest were known. Through the filtering described above, it is known which pixels are occupied by worms and which ones are not. Thus, the ratio of worm-pixels to all pixels inside the region of interest can be calculated to produce the worm-occupancy ratio. This calculation was done for every frame, giving a plot output of worm-occupancy ratio vs. time for each region.
# [3] = system: P. pacificus strain RSB020; test: Mouth-form dimorphism assay; assay type: in vivo, Pristionchus pacificus
# Protocol: Mouth-form dimorphism assays were performed using P. pacificus strain RSB020. The synthetic compounds dissolved in ethanol (0.5 mM) were diluted with water to make 100 μl solution and subsequently added to 3 mL NGM-agar (1 μM final concentration). The assay plates were seeded with 50 μl OP50 culture in LB medium and incubated overnight at 20° C. to allow bacterial growth. Each replicate included the progeny of two mothers, which were picked as adult hermaphrodites of a consistent age (carrying 4-6 eggs) and which were all from the same P. pacificus culture plate. Following the placement of mothers on assay plates, plates were kept at 20° C. for six days, such that the entire broods were adults at the time of screening. A random sample of 50 hermaphrodite progeny was screened per plate. All animals were screened by differential interference contrast (DIC) microscopy on a Zeiss Axiskop. The following discrete characters were used to discriminate eurystomatous from stenostomatous individuals, respectively: (1) claw-shaped vs. flint-shaped (i.e. dorsoventrally symmetrical) dorsal tooth; (2) presence vs. absence of a subventral tooth; (3) strongly vs. weakly sclerotized stomatal walls. No intermediate mouth-forms were observed. Experiments were conducted in triplicate for each treatment. In assays of responses to compounds of several concentrations (1, 0.3, 0.1, 0.03, 0.01 μM final concentrations), experiments were performed as described above, with the following modifications. To allow greater resolution of responses to lower concentrations, 60 randomly screened individuals in each of five replicates per concentration per compound were assayed. All concentration-curve experiments were performed in parallel using mothers picked randomly from the same two source populations. To prepare large numbers of individual mothers for these experiments, source populations were established from virgin hermaphrodites to constrain the presence of males and were conditioned to well-fed and ambient conditions for at least one generation before mothers were picked for the assays.
# S. feltiae IJs = test: Dispersal assay, S. feltiae infective juveniles; assay type: in vivo; conditions: for dispersal activity in combination with natural fractions B and C: ascr#9 40 pmol/μl, ascr#11 1.3 pmol/μl; for dispersal activity when tested alone: physiologically relevant concentrations
# Protocol: S. feltiae IJs were washed with MILLI-Q water three times and incubated in 6 cm petri dishes for […] with a small amount (4-5 ml) of MILLI-Q water. Nematodes were placed the following day on a 10.7 g/L agar with 1010 g/cm^2 gel strength (PhytoTechnology Lab. Shawnee Mission, Kans.). Nematode behavior was assayed on multiple plates with internal plate replicates to rule out the possibility that behavior was affected by plate composition. Approximately 300 IJs in 10 μl water were placed on an agar medium and the test compounds or extracts (1-2 μl) were placed into the nematode suspension. Upon absorption (˜15 minutes) of the liquid, the freely moving nematodes were video recorded for 5-10 minutes. Dispersal behavior is temperature and season dependent. During winter, the assay is effective at room temperature (22±1° C.). During summer, the assay requires a temperature controlled environment due to the effects on nematode behavior above 23° C.
# Activity-guided fractionation was conducted as reported in Srinivasan et al., Nature 454:1115-18 (2008), which is hereby incorporated by reference in its entirety, with modifications. A total of 33 insect host cadavers (G. mellonella larvae) were placed into 70% EtOH and stored at −20° C. until extraction. The insect cadavers were homogenized using 1 g of ceramic zirconium beads (1.25 mm) (ZIRMIL) in 2 ml tubes for 37 seconds using a Precellys24 homogenizer. Samples were centrifuged for 15 minutes at 18400 relative centrifugal force (rcf), and the supernatant was lyophilized and resuspended in MILLI-Q water. The dispersal activity of nematodes was tested using the dispersal assay described in Example 60 and a physiologically relevant concentration of insect host cadaver extract or fractionated extract. To facilitate calculations for physiologically relevant concentration of the ascarosides, wax worm volume was estimated at ˜200 μl; the average weight of wax worms was 232+57 mg (n=19).
# The first reverse-phase solid-phase extraction was performed using Sep-Pak Plus C18 cartridges (Waters corporation, Milford, Mass.). The initially collected flow through was termed Fraction A. Thereafter, the column was washed with water, collected, and saved. Subsequently, the column was eluted with 50% (Fraction B) and 90% (Fraction C) MeOH. The fractions were tested for dispersal activity both individually and in combination. Also, individual fractions were analyzed by LC-MS. Fraction A contained ascr#9, which was collected by LC-MS and tested for activity with Fraction B+C.
# P. pacificus = test: Dauer formation assay; assay type: in vivo, Pristionchus pacificus; conditions: synthetic samples; first assayed at 1 μM
# Protocol: Dauer formation assays were performed as described in Ogawa et al., Curr. Biol. 19:67-71 (2009), which is hereby incorporated by reference in its entirety, using heat- or kanamycin-killed E. coli OP50. Synthetic compounds were dissolved in ethanol (0.5 mM, stock solution) and combined with water to make a […] and subsequently added to 3 mL NGM-agar without peptone ([…], 0.3, 0.1 μM final concentrations).
# [4] = synthetic samples, first assayed at 1 μM
smiles,measurement,setting,value
CC(=O)CCC[C@@H](C)O[C@@H]1O[C@@H](C)[C@H](O)C[C@H]1O [ascr#2],promotion of dauer entry,C. elegans,individually promote dauer entry
same,lowest amount eliciting male attraction (as low as),C. elegans males,500 attomol
same,male attraction from a distance / chemotaxis towards a point source,C. elegans males,chemotax towards
same,"dauer larvae that moved away from the release location, normalized to the percent of the positive control response",C. elegans dauer larvae,40%
same,most active amount for attraction in C. elegans,[1],~1 pmol
C[C@H](CC/C=C/C(=O)Nc1ccc(C(=O)O)cc1)O[C@@H]1O[C@@H](C)[C@H](O)C[C@H]1O [ascr#8],preference for areas conditioned by the ascaroside,[2],preferred
same,promotion of dauer entry,C. elegans,individually promote dauer entry
same,male attraction from a distance / chemotaxis towards a point source,C. elegans males,not active
same,"dauer larvae that moved away from the release location, normalized to the percent of the positive control response",C. elegans dauer larvae,50%
C[C@H](CCC(=O)O)O[C@@H]1O[C@@H](C)[C@H](O)C[C@H]1O [ascr#9],preference for areas conditioned by the ascaroside,[2],preferred
same,induction of the eurystomatous mouth form,[3]; [4],inactive
same,substitution for ascr#2 in the C. elegans dispersal blend,C. elegans dauer larvae,can replace the function of ascr#2
same,substitution for ascr#2 in the C. elegans dispersal blend,C. elegans dauer larvae; listed as Ascr#9,able to substitute for its structural analog ascr#2
same,dispersal activity in combination with natural fractions B and C,S. feltiae IJs,restored the original dispersal activity
same,dispersal activity when tested alone,S. feltiae IJs,did not have activity by themselves
C[C@H](CC(=O)O)O[C@@H]1O[C@@H](C)[C@H](O)C[C@H]1O [ascr#11],dispersal activity in combination with natural fractions B and C,S. feltiae IJs,restored the full activity; also recorded: sufficient to cause dispersal
same,dispersal activity when tested alone,S. feltiae IJs,did not have activity by themselves
"C[C@H](CCC(=O)O[C@H](C)[C@H](NC(=O)Nc1ncnc2c1ncn2[C@@H]1OC[C@@H](O)[C@H](O)[C@H]1O)C(=O)O)O[C@@H]1O[C@@H](C)[C@H](O)C[C@@H]1O [npar#1, (2S,3R)-3-(((R)-4-(((2R,3S,5R,6S)-3,5-dihydroxy-6-methyltetrahydro-2H-pyran-2-yl)oxy)pentanoyl)oxy)-2-(3-(9-((2R,3R,4S,5R)-3,4,5-trihydroxytetrahydro-2H-pyran-2-yl)-9H-purin-6-yl)ureido)butanoic acid]",induction of the eurystomatous mouth form,[3]; high concentrations,weaker induction of the eurystomatous mouth form
same,dauer induction,P. pacificus,induces dauer arrest; also recorded: strongly induced dauer formation
"C[C@H](CCC(=O)O)O[C@@H]1O[C@@H](C)[C@H](O)C[C@@H]1O [part#9, (R)-4-(((2R,3S,5R,6S)-3,5-dihydroxy-6-methyltetrahydro-2H-pyran-2-yl)oxy)pentanoic acid]",induction of the eurystomatous mouth form,[3]; [4],inactive
same,dauer induction,P. pacificus,weaker dauer inducation

# Source: US9445596B2, “Small molecule compounds for the control of nematodes” (California Institute of Technology, priority 2011, dated 2016)
